Source: patent publication US9139585B2 (Merck Sharp & Dohme Corp., priority 2011, dated 2015)
Where two headings read alike, the source gives them in different places.

Legend:
hROMK (hKir1.1) = hROMK (hKir1.1) (Homo sapiens (Human), UniProt P48048); experiment: Thallium Flux Assay (ROMK channel functional thallium flux, FLIPR-Tetra); type: cell-based
Description: Another ROMK functional assay makes use of the ability of thallium to permeate through open ROMK channels and increase the fluorescence of a dye previously loaded into the cells. Under control conditions, cells loaded with dye and exposed to thallium-containing medium display a time-dependent increase in fluorescence, the rate of which depends on number of functional channels. When cells are incubated in the presence of a channel inhibitor, the increase in fluorescence is attenuated in a concentration-dependent manner, and IC50 values of inhibition by compounds can be accurately determined. This assay has been established with cell lines expressing either human, or rat ROMK channels, and operates in 384-well format.
HEK293 cells stably expressing hROMK (hKir1.1) were grown at 37° C. in a 10% CO2 humidified incubator in complete growth media: Dulbecco's Modified Eagle Medium supplemented with non-essential amino acids, Penicillin/Streptomycin/Glutamine, G418 and FBS. At >80% confluency, the media was aspirated from the flask and the sample was rinsed with 10 ml Calcium/Magnesium-free PBS. […] To dislodge the cell, the side of the flask was gently banged with a hand. The cells were triturated completely and then transferred to 25 ml complete media. The sample was then centrifuged at 1,500 rpm for 6 minutes, followed by resuspension in complete growth media and then cell concentration was determined. […] Under ideal growth conditions and appropriate tissue culture practices, this cell line is stable for 40-45 passages.
FluxOR Kit Components (Invitrogen F10017)
• FluxOR™ Reagent (Component A) • FluxOR™ Assay Buffer (Component B)—10× Concentrate • PowerLoad™ Concentrate (Component C)—100× Concentrate • Probenecid (Component D)—Lyophilized sample is kept at −20° C. Water soluble, 100× after solubilization in 1 ml water. […] Store at 4° C. • Thallium sulfate (Tl2SO4) Concentrate (Component G)—50 mM in water. Store at 4° C. • DMSO (dimethyl sulfoxide, Component H)—1 ml (100%) Reagent Preparation— FluxOR Working Solutions • 1000× FluxOR™ Reagent: Reconstitute a vial of component A in 100 μl DMSO; Mix well; Store 10 μl aliquots at −20° C. • 1× FluxOR™ Assay Buffer: Dilute Component B 10-fold with water; Adjust pH to 7.4 with Hepes/NaOH; Filter and store at 4° C. • Probenecid/Assay Buffer: 100 ml of 1× FluxOR™ Assay Buffer; 1 ml of reconstituted component D; Store at 4° C. • Loading Buffer (per microplate): 10 μl 1000× FluxOR™ Reagent; 100 μl component C; 10 ml Probenecid/Assay Buffer • Compound Buffer (per microplate): 20 ml Probenecid/Assay Buffer; 0.3 mM ouabain (10 mM ouabain in water can be stored in amber bottle/aluminum foil at room temperature);
Test compound • 1× FluxOR™ Chloride-Free Buffer: Prepare 1× working solution in water. Can be stored at room temperature • Stimulant Buffer (prepared at 5× final concentration in 1× FluxOR™ Chloride-Free Buffer): 7.5 mM Thallium sulfate and 0.75 mM Potassium sulfate (to give a final assay concentration of 3 mM Thallium/0.3 mM Potassium). Store at 4° C. when not in use. If kept sterile, this solution is good for months. Assay Protocol—
The ROMK channel functional thallium flux assay is performed in 384 wells, using the FLIPR-Tetra instrument. HEK-hKir1.1 cells are seeded in Poly-D-Lysine microplates and kept in a 37° C.-10% CO2 incubator overnight. On the day of the experiment, the growth media is replaced with the FluxOR™ reagent loading buffer and incubated, protected from light, at ambient temperature (23-25° C.) for 90 min. The loading buffer is replaced with assay buffer±test compound followed by 30 min incubation at ambient temperature, where the Thallium/Potassium stimulant is added to the microplate.
• 1. Seed HEK-hKir1.1 cells (50 μl at 20,000 cells/well) in 384-well PDL coated Microplates • 2. Allow cells to adhere overnight in humidified 37° C./10% CO2 incubator • 3. Completely remove cell growth media from microplate and replace with 25 μl loading buffer • 4.

Kir1.1 (ROMK1) = Kir1.1 (ROMK1) (Homo sapiens (Human), UniProt P48048); experiment: Electrophysiology Assay (whole cell voltage clamp, IonWorks Quattro); type: cell-based
Chain of Kir1.1 (ROMK1) (P48048 whole entry, species assumed): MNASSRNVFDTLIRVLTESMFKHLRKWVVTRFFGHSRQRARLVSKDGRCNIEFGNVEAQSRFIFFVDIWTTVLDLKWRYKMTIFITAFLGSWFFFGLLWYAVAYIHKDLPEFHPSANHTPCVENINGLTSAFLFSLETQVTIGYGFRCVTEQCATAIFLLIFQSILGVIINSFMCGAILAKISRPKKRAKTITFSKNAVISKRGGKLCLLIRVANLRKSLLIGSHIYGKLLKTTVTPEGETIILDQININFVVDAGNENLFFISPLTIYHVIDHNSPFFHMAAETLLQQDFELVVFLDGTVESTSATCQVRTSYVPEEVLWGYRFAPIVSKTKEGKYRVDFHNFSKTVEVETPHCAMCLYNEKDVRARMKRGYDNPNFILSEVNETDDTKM
Excerpt: Several assays may be used to measure functional inhibition of the ROMK channel by compounds of the instant invention. One assay that can be used is an electrophysiology assay that measures the electrical current that is generated as potassium permeates through the channel.
Block of Kir1.1 (ROMK1) currents was examined by whole cell voltage clamp (Hamill et. al. Pfluegers Archives 391:85-100 (1981)) using the IonWorks® Quattro automated electrophysiology platform (Molecular Devices, Sunnyvale, Calif.). Chinese hamster ovary cells stably expressing Kir1.1 channels were maintained in T-75 flasks in cell culture media in a humidified 10% CO2 incubator at 37° C. Prior to an experiment, Kir1.1 expression was induced by overnight incubation with 1 mM sodium butyrate. On the day of the experiment, cells were dissociated with 2.5 ml of Versene™ (Invitrogen 15040-066) for approximately 6 minutes at 37° C. and suspended in 10 ml of bath solution containing (in mM): 150 NaCl, 10 KCl, 2.7 CaCl2, 0.5 MgCl2, 5 HEPES, pH 7.4. After centrifugation, the cell pellet was resuspended in approximately 4.0 ml of bath solution and placed in the IonWorks® instrument. The intracellular solution consisted of (in mM): 80 K gluconate, 40 KCl, 20 KF, 3.2 MgCl2, 3 EGTA, 5 Hepes, pH 7.4. Electrical access to the cytoplasm was achieved by perforation in 0.13 mg/ml amphotericin B for 4 minutes. Amphotericin B (Sigma A-4888) was prepared as a 40 mg/ml solution in DMSO.
Voltage protocols and current recordings were performed using the IonWorks® HT software/hardware system. Currents were sampled at 1 kHz. No correction for liquid junction potentials was used. The test pulse, consisting of a 100 ms step to 0 mV from a holding potential of −70 mV, followed by a 100 ms voltage ramp from −70 mV to +70 mV, was applied before and after a 6 minutes compound incubation period. Test compounds were prepared by diluting DMSO stock solutions into the bath solution at 3× the final concentration and placed in the instrument in 96-well polypropylene plates. Current amplitudes were measured using the IonWorks® software. To assess compound potency, the fractional block during the voltage step to 0 mV was calculated in Microsoft® Excel (Microsoft, Redmond, Calif.), and dose-response curves were fitted with Igor Pro 4.0 (WaveMetrics, Lake Oswego, Oreg.).

[1] = HEK293 cells stably expressing hROMK (hKir1.1), read-out: Thallium Flux Assay IC50
[2] = Chinese hamster ovary cells stably expressing Kir1.1, block during voltage step to 0 mV, read-out: EP Assay IC50
[3] = read-out: Thallium Flux Assay IC50

Chain of hROMK (hKir1.1) (P48048 whole entry): as the sequence (P48048 whole entry, species assumed) above

Cc1c([C@@H](O)CN2C3CCC2C2CCC3N2CC(O)c2ccc(C#N)cn2)ccc2c1COC2=O (single isomer, unassigned) [Example 5]
IC50 (hROMK (hKir1.1); [1]): 377 nM
IC50 (Kir1.1 (ROMK1); [2]): 197 nM

COc1cc(C(O)CN2C3CCC2C2CCC3N2C[C@H](O)c2ccc3c(c2C)COC3=O)ncc1C#N (single isomer, unassigned) [Example 6]
IC50 (hROMK (hKir1.1); [1]): 26 nM
IC50 (Kir1.1 (ROMK1); [2]): 21 nM

Cc1c([C@@H](O)CN2C3CCC2C2CCC3N2CC(O)c2ccc(C#N)cn2)ccc2c1COC2=O (single isomer, unassigned) [Example 8]
IC50 (hROMK (hKir1.1); [1]): 915 nM

COc1cc(C(O)CN2C3CCC2C2CCC3N2C[C@H](O)c2ccc3c(c2C)COC3=O)ncc1C#N (single isomer, unassigned) [Example 9]
IC50 (hROMK (hKir1.1); [1]): 23 nM
IC50 (Kir1.1 (ROMK1); [2]): 23 nM

Cc1c([C@@H](O)CN2CC3CCC2CN3S(=O)(=O)c2ccc(-n3cnnn3)cc2)ccc2c1COC2=O (single isomer, unassigned) [Example 17A]
IC50 (hROMK (hKir1.1); [1]): 508 nM
IC50 (Kir1.1 (ROMK1); [2]): 170 nM

Cc1c([C@@H](O)CN2CC3CCC2CN3S(=O)(=O)c2ccc(-n3cnnn3)cc2)ccc2c1COC2=O (single isomer, unassigned) [Example 17B]
IC50 (hROMK (hKir1.1); [1]): 997 nM

Cc1c([C@@H](O)CN2C3COCC2CN(CC(O)c2ccc4c(c2)C[C@H](C)OC4=O)C3)ccc2c1COC2=O (single isomer, unassigned) [Example 23A]
IC50 (hROMK (hKir1.1); Thallium Flux Assay IC50): 461 nM
IC50 (Kir1.1 (ROMK1); [2]): 2460 nM

Cc1c([C@@H](O)CN2C3COCC2CN(CC(O)c2ccc4c(c2)C[C@H](C)OC4=O)C3)ccc2c1COC2=O (single isomer, unassigned) [Example 23B]
IC50 (hROMK (hKir1.1); Thallium Flux Assay IC50): 40.5 nM
IC50 (Kir1.1 (ROMK1)): 64 nM

Cc1c([C@@H](O)CN2C3COCC2CN(CC(O)c2ccc4c(c2)C[C@@H](C)OC4=O)C3)ccc2c1COC2=O (single isomer, unassigned) [Example 24A]
IC50 (hROMK (hKir1.1); Thallium Flux Assay IC50): 2040 nM

Cc1c([C@@H](O)CN2C3COCC2CN(CC(O)c2ccc4c(c2)C[C@@H](C)OC4=O)C3)ccc2c1COC2=O (single isomer, unassigned) [Example 24B]
IC50 (hROMK (hKir1.1); Thallium Flux Assay IC50): 36.1 nM
IC50 (Kir1.1 (ROMK1)): 66 nM

Cc1c([C@@H](O)CN2CCN(CC(O)c3ccc(-n4cnnn4)nc3)CC2)ccc2c1COC2=O (single isomer, unassigned) [Example 34A]
IC50 (hROMK (hKir1.1); [3]): 296 nM
IC50 (Kir1.1 (ROMK1); read-out: EP Assay IC50): 35 nM

Cc1c([C@@H](O)CN2CCN(CC(O)c3ccc(-n4cnnn4)nc3)CC2)ccc2c1COC2=O (single isomer, unassigned) [Example 34B]
IC50 (hROMK (hKir1.1); [3]): 147 nM
IC50 (Kir1.1 (ROMK1); read-out: EP Assay IC50): 14 nM

Cc1cc(-n2cnnn2)ncc1[C@@H](O)CN1CCN(C[C@H](O)c2ccc3c(c2C)COC3=O)CC1 (single isomer, unassigned) [Example 35A]
IC50 (hROMK (hKir1.1); [1]): 105 nM
IC50 (Kir1.1 (ROMK1); [2]): 29 nM

Cc1cc(-n2cnnn2)ncc1[C@@H](O)CN1CCN(C[C@H](O)c2ccc3c(c2C)COC3=O)CC1 (single isomer, unassigned) [Example 35B]
IC50 (hROMK (hKir1.1); [1]): 278 nM
IC50 (Kir1.1 (ROMK1); [2]): 32.5 nM

Cc1nc(-n2cnnn2)ccc1[C@@H](O)CN1CCN(C[C@H](O)c2ccc3c(c2C)COC3=O)CC1 (single isomer, unassigned) [Example 36A]
IC50 (hROMK (hKir1.1); [1]): 441 nM
IC50 (Kir1.1 (ROMK1); [2]): 55 nM

Cc1nc(-n2cnnn2)ccc1[C@@H](O)CN1CCN(C[C@H](O)c2ccc3c(c2C)COC3=O)CC1 (single isomer, unassigned) [Example 36B]
IC50 (hROMK (hKir1.1); [1]): 171 nM
IC50 (Kir1.1 (ROMK1); [2]): 24 nM

Cc1c([C@@H](O)CN2CCN(C[C@H](O)c3ccc4c(c3)C[C@H](C)OC4=O)CC2)ccc2c1COC2=O (single isomer, unassigned) [Example 37A]
IC50 (hROMK (hKir1.1); [1]): 685 nM
IC50 (Kir1.1 (ROMK1); [2]): 71 nM

Cc1c([C@@H](O)CN2CCN(C[C@H](O)c3ccc4c(c3)C[C@H](C)OC4=O)CC2)ccc2c1COC2=O (single isomer, unassigned) [Example 37B]
IC50 (hROMK (hKir1.1); [1]): 48.5 nM
IC50 (Kir1.1 (ROMK1); [2]): 31.5 nM

Cc1c([C@@H](O)CN2CCN(C[C@H](O)c3ccc4c(c3)C[C@@H](C)OC4=O)CC2)ccc2c1COC2=O (single isomer, unassigned) [Example 38A]
IC50 (hROMK (hKir1.1); [1]): 68.5 nM
IC50 (Kir1.1 (ROMK1); [2]): 17.5 nM

Cc1c([C@@H](O)CN2CCN(C[C@H](O)c3ccc4c(c3)C[C@@H](C)OC4=O)CC2)ccc2c1COC2=O (single isomer, unassigned) [Example 38B]
IC50 (hROMK (hKir1.1); [1]): 33.4 nM
IC50 (Kir1.1 (ROMK1); [2]): 29 nM

Cc1c([C@@H](O)CN2CCN(C[C@@H](O)c3ccc4c(c3)CCS4(=O)=O)CC2)ccc2c1COC2=O (single isomer, unassigned) [Example 43A]
IC50 (hROMK (hKir1.1); [1]): 52.3 nM
IC50 (Kir1.1 (ROMK1); [2]): 95 nM

Cc1c([C@@H](O)CN2CCN(C[C@@H](O)c3ccc4c(c3)CCS4(=O)=O)CC2)ccc2c1COC2=O (single isomer, unassigned) [Example 43B]
IC50 (hROMK (hKir1.1); [1]): 52.4 nM

Cc1c([C@@H](O)CN2CCN(C[C@H](O)c3ccc4c(c3C)COC4=O)C3(CC3)C2)ccc2c1COC2=O [Example 4, 5,5′-(1R,1′R)-2,2′-(4,7-Diazaspiro[2.5]octane-4,7-diyl)bis(1-hydroxyethane-2,1-diyl)bis(4-methylisobenzofuran-1(3H)-one)]
IC50 (hROMK (hKir1.1); Thallium Flux Assay IC50): 635 nM

Cc1c([C@@H](O)CN2C3COCC2CN(CC(O)c2ccc(C#N)cn2)C3)ccc2c1COC2=O (stereo partly drawn) [Example 19, 6-(1-Hydroxy-2-(9-((R)-2-hydroxy-2-(4-methyl-1-oxo-1,3-dihydroisobenzofuran-5-yl)ethyl)-3-oxa-7,9-diazabicyclo[3.3.1]nonan-7-yl)ethyl)nicotinonitrile]
IC50 (hROMK (hKir1.1); [1]): 1620 nM

Cc1c([C@@H](O)CN2CCCCN(C[C@H](O)c3ccc4c(c3C)COC4=O)CC2)ccc2c1COC2=O [Example 27, 5,5′-(1R,1′R)-2,2′-(1,4-Diazocane-1,4-diyl)bis(1-hydroxyethane-2,1-diyl)bis(4-methylisobenzofuran-1(3H)-one)]
IC50 (hROMK (hKir1.1); [1]): 697 nM
